Results reported in patent publication US20230073512A1, “MODULATORS OF CULLIN 3 ADAPTOR KBTBD4 AS ANTI-CANCER COMPOUNDS” (UNIVERSITE DE MONTREAL, priority 2019, published 2023).

Tested on: AML3
Assay: Cell proliferation of cancerous cell lines
Type: cell-based
Conditions: AML3; read-out: Antineoplastic effect of tested compounds on cell proliferation of cancerous AML3 cells, IC50

Structure (SMILES)	IC50 [nM]
COC(=O)c1ccc2c(c1)[nH]c1nc(Cc3ccsc3)nc(NCCCN3CCCCC3)c12	1000 to 2000
COC(=O)c1ccc2c3c(N(C)CCCN4CCCCC4)ncnc3n(C)c2c1	2000 to 5000
COC(=O)c1ccc2c(c1)[nH]c1nc(C)nc(NCCCN3CCCCC3)c12	2000 to 5000
COC(=O)c1ccc2c(c1)[nH]c1nc(Cc3ccccc3)nc(NCCCN(C)CCOCCOCCO)c12	500 to 1000
COC(=O)c1ccc2c(c1)[nH]c1ncnc(NCCCN3CCCCC3)c12 [drawing 45]	2000 to 5000
Cc1nc(-c2ccc3c(c2)[nH]c2nc(Cc4ccccc4)nc(NCCCN4CCCCC4)c23)no1	1000 to 2000
COC(=O)c1ccc2c(c1)[nH]c1ncnc(NCC(C)(C)CN)c12	2000 to 5000
COC(=O)c1ccc2c(c1)[nH]c1nc(Cc3ccccc3)nc(NCC(O)CN3CCCCC3)c12 (stereo not drawn)	2000 to 5000
COC(=O)c1ccc2c(c1)[nH]c1cc(Cc3cccc(OC)c3)nc(NCCCCN3CCCC3)c12	1000 to 2000
CN1CCN(c2ccc(CNc3nc(Cc4ccccc4)nc4[nH]c5cc(-c6nnn(C)n6)ccc5c34)cc2)CC1	500 to 1000
Cn1nnc(-c2ccc3c(c2)[nH]c2ncnc(NCCCN4CCCCC4)c23)n1 [drawing 53]	1000 to 2000
CCCCCc1nc(NCCCN2CCCCC2)c2c(n1)[nH]c1cc(C(=O)OC)ccc12	500 to 1000
COC(=O)c1ccc2c(c1)[nH]c1cc(Cc3ccccc3)nc(NCCN3CCCC3)c12	2000 to 5000
COC(=O)c1ccc2c(c1)[nH]c1ncnc(NCCCN(C)CCCN)c12	2000 to 5000
Cn1nnc(-c2ccc3c(c2)[nH]c2ncnc(NCC(O)CN4CCCCC4)c23)n1 (stereo not drawn)	1000 to 2000
COC(=O)c1ccc2c(c1)[nH]c1nc(Cc3ccccc3)nc(NCC3CCCN3)c12 (stereo not drawn)	2000 to 5000
COC(=O)c1ccc2c(c1)[nH]c1nc(Cc3ccncc3)nc(NCCCN3CCCCC3)c12	2000 to 5000
Cn1nnc(-c2ccc3c(c2)[nH]c2ncnc(N[C@H]4CC[C@H](N(C)C)CC4)c23)n1	500 to 1000
COC(=O)c1ccc2c(c1)[nH]c1nc(Cc3ccccc3)nc(Nc3cccc(CO)c3)c12	2000 to 5000
COC(=O)c1cnc2c(c1)[nH]c1nc(Cc3ccc4ccccc4c3)nc(N3CCC(N4CCCC4)CC3)c12	500 to 1000
COC(=O)c1ccc2c(c1)[nH]c1nc(Nc3ccccc3)nc(NCCCN3CCCCC3)c12	1000 to 2000
COC(=O)c1ccc2c(c1)[nH]c1nc(Cc3ccccc3)nc(Nc3cccc(NC(C)=O)c3)c12	2000 to 5000
COC(=O)c1ccc2c(c1)[nH]c1nc(CCc3ccccc3)nc(NCCCN3CCCCC3)c12	2000 to 5000
COC(=O)c1ccc2c(c1)[nH]c1nc(C)nc(NCCCN(C)CCCN)c12	2000 to 5000

Structure (SMILES)	IC50 [nM]
COC(=O)c1ccc2c(c1)[nH]c1ncnc(N[C@H]3CC[C@@H](N)CC3)c12	2000 to 5000
Cn1nnc(-c2ccc3c(c2)[nH]c2ncnc(NCCCN4CCCC4)c23)n1	1000 to 2000
COC(=O)c1ccc2c(c1)[nH]c1nc(Cc3ccccc3C)nc(NCCCN3CCCCC3)c12	1000 to 2000
Cn1nnc(-c2ccc3c(c2)[nH]c2ncnc(NCCCCN4CCCCC4)c23)n1	1000 to 2000
Cn1nnc(-c2ccc3c(c2)[nH]c2nc(Cc4ccccc4)nc(NCCCCCCCCCCN)c23)n1	1000 to 2000
COC(=O)c1ccc2c(c1)[nH]c1nc(Cc3ccccc3)nc(NCCCN(C)CCCN)c12	1000 to 2000
COC(=O)c1ccc2c(c1)[nH]c1cc(Cc3cccc(O)c3)nc(NCCCCN3CCCC3)c12	1000 to 2000
COC(=O)c1ccc2c(c1)[nH]c1nc(Cc3ccccc3)nc(Nc3cccc(N)c3)c12	2000 to 5000
COC(=O)c1ccc2c(c1)[nH]c1ncnc(NCCc3c[nH]c4ccccc34)c12	2000 to 5000
CN(CCCN1CCCCC1)c1ncnc2[nH]c3cc(-c4nnn(C)n4)ccc3c12	1000 to 2000
COC(=O)c1ccc2c(c1)[nH]c1nc(Cc3ccccc3)cc(NCCCN3CCCCC3)c12	2000 to 5000
c1csc(-c2ccc3c(c2)[nH]c2ncnc(NCCCN4CCCCC4)c23)c1	2000 to 5000
COC(=O)c1ccc2c(c1)[nH]c1cc(Cc3ccsc3)nc(NCCCN3CCCCC3)c12	2000 to 5000
CN(C)CCNc1ncnc2[nH]c3cc(-c4nnn(C)n4)ccc3c12	500 to 1000
COC(=O)c1ccc2c(c1)[nH]c1ncnc(NC3CCC(N(C)C)CC3)c12 (stereo not drawn)	2000 to 5000
COC(=O)c1ccc2c(c1)[nH]c1nc(C(=O)c3ccccc3)nc(NCCCN3CCCCC3)c12	2000 to 5000
COC(=O)c1ccc2c(c1)[nH]c1nc(Cc3ccccc3)nc(NCCN(C)CCN)c12	1000 to 2000
COC(=O)c1ccc2c(c1)[nH]c1nc(Cc3ccccc3)nc(NCCCN(C)CCCNc3ncnc4[nH]c5ccccc5c34)c12	2000 to 5000
Cc1nnc(-c2ccc3c(c2)[nH]c2ncnc(NCCCN4CCCCC4)c23)o1	2000 to 5000
COC(=O)c1ccc2c(c1)[nH]c1nc(Cc3cccc(OC)c3)nc(NCCCN3CCCCC3)c12	2000 to 5000
Cn1nnc(-c2ccc3c(c2)[nH]c2nc(Cc4ccccc4)nc(NCCCNCCCN)c23)n1	2000 to 5000
COC(=O)c1ccc2c(c1)[nH]c1ncnc(NCCN3CCCCC3)c12	2000 to 5000
Cn1nnc(-c2ccc3c(c2)[nH]c2nc(Cc4ccccc4)nc(NCCCN4CCCC4)c23)n1	< 500
COC(=O)c1cnc2c(c1)[nH]c1nc(Cc3ccc4ccccc4c3)nc(NCCCN3CCCCC3)c12	1000 to 2000

Structure (SMILES)	IC50 [nM]
COC(=O)c1ccc2c(c1)[nH]c1nc(Cc3cccc(F)c3)nc(NCCCN3CCCCC3)c12	2000 to 5000
Cn1nnc(-c2ccc3c(c2)[nH]c2ncnc(NCCCNC(=O)C(F)(F)F)c23)n1	2000 to 5000
COC(=O)c1ccc2c(c1)[nH]c1nc(C(C)c3ccccc3)nc(NCCCN3CCCCC3)c12 (stereo not drawn)	2000 to 5000
COC(=O)c1ccc2c(c1)[nH]c1nc(Cc3cccs3)nc(NCCCN3CCCCC3)c12	2000 to 5000
COC(=O)c1ccc2c(c1)[nH]c1ncnc(NCc3ccccc3CN(C)C)c12	< 500
CCOC(=O)c1ccc2c(c1)[nH]c1nc(Cc3ccccc3)nc(NCCCN3CCCCC3)c12	2000 to 5000
COC(=O)c1ccc2c(c1)[nH]c1nc(Cc3cccc(C(=O)C(F)(F)F)c3)nc(NCCCN3CCCCC3)c12	1000 to 2000
CC(=O)NCCNc1nc(Cc2ccccc2)nc2[nH]c3cc(-c4nnn(C)n4)ccc3c12	2000 to 5000
COC(=O)c1ccc2c(c1)[nH]c1nc(Cc3ccccc3)nc(NCCCCCCN(C)C)c12	500 to 1000
CNCCCNc1ncnc2[nH]c3cc(C(=O)OC)ccc3c12	2000 to 5000
COC(=O)c1ccc2c(c1)[nH]c1ncnc(NCCCN3CCCCC3C)c12 (stereo not drawn)	2000 to 5000
COC(=O)c1ccc2c3c(NCCCN4CCCCC4)ncnc3n(C)c2c1	1000 to 2000
Cn1nnc(-c2ccc3c(c2)[nH]c2ncnc(N[C@H]4CC[C@H](N)CC4)c23)n1	1000 to 2000
C#Cc1cccc(Cc2nc(NCCN(C)CCN)c3c(n2)[nH]c2cc(-c4nnn(C)n4)ccc23)c1	2000 to 5000
c1ccc(-c2ccc3c(c2)[nH]c2ncnc(NCCCN4CCCCC4)c23)cc1	2000 to 5000
COC(=O)c1ccc2c(c1)[nH]c1nc(Cc3ccccc3)nc(NCCCN(C)CC(O)COCc3ccccc3)c12 (stereo not drawn)	2000 to 5000
CCNCCNc1nc(Cc2ccccc2)nc2[nH]c3cc(C(=O)OC)ccc3c12	< 500
COC(=O)c1cnc2c(c1)Cc1nc(Cc3ccccc3)nc(NCCCN(C)CCCNc3nc(Cc4ccccc4)nc4[nH]c5cc(C(=O)OC)cnc5c34)c1-2	< 500
COC(=O)c1ccc2c(c1)[nH]c1ncnc(N[C@H]3CC[C@H](N)CC3)c12	1000 to 2000
Cn1nnc(-c2ccc3c(c2)[nH]c2nc(Cc4ccccc4)nc(NCCCNCCCNC(=O)CCCC[C@@H]4SC[C@@H]5NC(=O)N[C@@H]54)c23)n1	1000 to 2000
C#CCCC(=O)NCCCN(C)CCCNc1nc(Cc2ccccc2)nc2[nH]c3cc(C(=O)OC)ccc3c12	500 to 1000
COC(=O)c1ccc2c(c1)[nH]c1nc(C(OCc3ccccc3)c3ccccc3)nc(NCCCN3CCCCC3)c12 (stereo not drawn)	1000 to 2000
C#CCNCCCN(C)CCCNc1nc(Cc2ccccc2)nc2[nH]c3cc(C(=O)OC)ccc3c12	1000 to 2000
COC(=O)c1ccc2c(c1)[nH]c1ccnc(NCCCN3CCCCC3)c12	1000 to 2000

Structure (SMILES)	IC50 [nM]
COC(=O)c1ccc2c(c1)[nH]c1nc(Cc3ccccc3)nc(NCCCN3CCCCC3)c12	1000 to 2000
COC(=O)c1ccc2c(c1)[nH]c1nc(Cc3ccccc3)nc(NCCCN(C)CCCNC(=N)N)c12	< 500
COC(=O)c1ccc2c(c1)[nH]c1nc(Cc3ccccc3)nc(NCCNC3=NCCC3)c12	500 to 1000
COC(=O)c1ccc2c(c1)[nH]c1nc(Cc3ccccc3)nc(NCCCCCCCN)c12	1000 to 2000
CN(CCCN)CCCNc1nc(Cc2ccccc2)nc2[nH]c3cc(-c4nnn(C)n4)ccc3c12	500 to 1000
COC(=O)c1ccc2c(c1)[nH]c1nc(Cc3ccccc3)nc(SCCCN3CCCCC3)c12	2000 to 5000
COC(=O)c1ccc2c(c1)[nH]c1nc(CN(C)C)nc(NCCCN3CCCCC3)c12	2000 to 5000
COC(=O)c1ccc2c(c1)[nH]c1nc(Cc3cccc(F)c3)nc(NCCCN(C)CCCN)c12	2000 to 5000
COC(=O)c1ccc2c(c1)[nH]c1nc(Cc3ccccc3)nc(NCC3CCNC3)c12 (stereo not drawn)	500 to 1000
COC(=O)c1ccc2[nH]c3nc(Cc4ccccc4)nc(NCCCN4CCCCC4)c3c2c1 [drawing 103]	2000 to 5000
C#CCOC(CNc1nc(Cc2ccccc2)nc2[nH]c3cc(C(=O)OC)ccc3c12)CN1CCCCC1 (stereo not drawn)	2000 to 5000
Cn1nnc(-c2ccc3c(c2)[nH]c2nc(Cc4ccccc4)nc(N[C@H]4CC[C@H](N(C)C)CC4)c23)n1	500 to 1000
Cn1nnc(-c2ccc3c(c2)[nH]c2nc(Cc4ccccc4)nc(NCCCN4CCCCC4)c23)n1	500 to 1000
COC(=O)c1cnc2c(c1)[nH]c1nc(C(C)c3ccccc3)nc(NCCCN3CCCCC3)c12 (stereo not drawn)	2000 to 5000
COC(=O)c1ccc2c(c1)[nH]c1nc(Cc3ccccc3)nc(CCCCN3CCCCC3)c12	1000 to 2000
Cn1nnc(-c2ccc3c(c2)[nH]c2cc(Cc4ccccc4)nc(NCCCN4CCCCC4)c23)n1	1000 to 2000
CNCCNc1nc(Cc2ccccc2)nc2[nH]c3cc(C(=O)OC)ccc3c12	500 to 1000
CN(C)CCCN(C)c1ncnc2[nH]c3cc(-c4nnn(C)n4)ccc3c12	1000 to 2000
COC(=O)c1ccc2c(c1)[nH]c1nc(Cc3cccnc3)nc(N3CCC(N4CCCC4)CC3)c12	2000 to 5000
CNS(=O)(=O)c1cccc(Nc2ncnc3[nH]c4cc(C(=O)OC)ccc4c23)c1	< 500
Cn1nnc(-c2ccc3c(c2)[nH]c2nc(Cc4ccccc4)nc(NCCN)c23)n1	1000 to 2000
